17 compounds from publication PMC7662226, “Discovery of Novel Indolealkylpiperazine Derivatives as Potent 5-HT1A Receptor Agonists for the Potential Future Treatment of Depression” (Molecules, 2020) can be followed below.

pEC50, pIC50: −log10 of the molar value.

What all share (format): cell-based
The target of one assay is T1, human 5-HT1AR (Homo sapiens, UniProt P08908).
T1 construct: expressed in transfected cells; host or cells: HEK-293
T1 sequence (P08908 1-422): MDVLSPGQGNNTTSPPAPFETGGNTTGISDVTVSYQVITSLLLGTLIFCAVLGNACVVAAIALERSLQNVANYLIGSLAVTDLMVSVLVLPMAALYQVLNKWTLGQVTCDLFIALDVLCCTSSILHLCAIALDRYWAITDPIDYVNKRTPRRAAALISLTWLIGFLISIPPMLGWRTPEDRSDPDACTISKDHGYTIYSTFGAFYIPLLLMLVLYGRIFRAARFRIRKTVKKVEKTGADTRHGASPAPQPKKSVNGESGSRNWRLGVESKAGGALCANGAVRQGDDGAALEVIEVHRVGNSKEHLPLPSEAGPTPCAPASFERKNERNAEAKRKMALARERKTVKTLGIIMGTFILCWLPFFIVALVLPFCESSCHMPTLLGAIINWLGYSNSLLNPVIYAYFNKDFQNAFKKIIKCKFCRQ
Nature of the assay: Ultra Lance cAMP assay, 5-HT1AR. The note with it: agonistic functional activity, human 5-HT1AR expressed by HEK-293 cells; NA: no activity. The protocol:
(§1) 1.2 Biological Evaluation
(§2) 1.2.1. Ultra Lance cAMP assay
(§3) The Ultra Lance cAMP assay was performed to evaluate the function of synthesized compounds to D2R and 5-HT1AR with human D2R and 5-HT1AR expressed by HEK-293 cells.
(§4) […] The IC50 values were calculated by nonlinear regression using a sigmoidal function.

Another assay addresses T2, human D2R (Homo sapiens, UniProt P14416).
T2 construct: expressed in transfected cells; host or cells: HEK-293
The assay is described as follows: Ultra Lance cAMP assay, D2R. The settings on record: functional activity, human D2R expressed by HEK-293 cells; NA: no activity. The protocol: as §1, §2, §3, §4
For orientation: cAMP levels reflect the balance of adenylyl cyclase and phosphodiesterase activity.

For a further assay, the target named is T3, human 5-HT2AR (Homo sapiens, UniProt P28223).
T3 construct: expressed in transfected cells; host or cells: CHO-K1
T3 sequence (P28223 whole entry): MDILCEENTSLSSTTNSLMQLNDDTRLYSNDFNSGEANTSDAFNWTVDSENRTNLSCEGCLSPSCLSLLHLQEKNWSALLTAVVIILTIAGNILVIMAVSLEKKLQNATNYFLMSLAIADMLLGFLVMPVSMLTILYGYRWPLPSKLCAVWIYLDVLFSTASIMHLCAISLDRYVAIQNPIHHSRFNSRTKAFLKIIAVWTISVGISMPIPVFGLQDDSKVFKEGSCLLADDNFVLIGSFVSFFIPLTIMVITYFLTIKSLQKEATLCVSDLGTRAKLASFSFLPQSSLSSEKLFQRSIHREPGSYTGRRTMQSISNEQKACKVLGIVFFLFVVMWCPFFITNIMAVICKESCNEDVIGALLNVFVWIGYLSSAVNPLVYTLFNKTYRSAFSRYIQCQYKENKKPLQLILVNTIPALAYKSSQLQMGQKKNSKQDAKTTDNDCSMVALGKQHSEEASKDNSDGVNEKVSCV
The assay is described as follows: Fluorometric Imaging Plate Reader (FLIPR) assay, 5-HT2AR. The note with it: functional activity, calcium flux, human 5-HT2AR expressed by CHO-K1 cells; NA: no activity. The protocol: 1.2.2. Fluorometric Imaging Plate Reader (FLIPR) assay
The FLIPR assay was performed to evaluate the function of synthesized compounds to 5-HT2AR with human 5-HT2AR expressed by CHO-K1 cells. Reference compound for 5-HT2AR was […]
[…] After 15 min add 22.5 µl /well of inducer and calcium flux signal is measured. The IC50 values were calculated by nonlinear regression using a sigmoidal function.
In general terms: A change in cytosolic calcium serves as a functional read-out for many receptors and channels.

T2 sequence (P14416 whole entry): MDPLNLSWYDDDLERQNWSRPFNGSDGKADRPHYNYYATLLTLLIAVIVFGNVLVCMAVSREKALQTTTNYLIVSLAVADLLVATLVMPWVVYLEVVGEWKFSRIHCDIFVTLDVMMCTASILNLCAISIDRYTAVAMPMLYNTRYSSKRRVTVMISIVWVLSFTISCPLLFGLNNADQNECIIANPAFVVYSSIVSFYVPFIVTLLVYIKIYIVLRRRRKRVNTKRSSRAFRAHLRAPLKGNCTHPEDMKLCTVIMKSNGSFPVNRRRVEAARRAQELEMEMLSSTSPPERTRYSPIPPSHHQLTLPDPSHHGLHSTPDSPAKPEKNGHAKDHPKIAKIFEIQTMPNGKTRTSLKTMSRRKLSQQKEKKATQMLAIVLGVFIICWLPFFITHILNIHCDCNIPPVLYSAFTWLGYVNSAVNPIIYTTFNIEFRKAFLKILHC

In general, pEC50 refers to the negative decadic logarithm of the EC50, by convention in mol/L. Compound `CNS(=O)(=O)c1ccc(OC2COC2)c(C(=O)N2CCN(CCCc3c[nH]c4ccc(C#N)cc34)CC2)c1` [Compound 13l] showed a pEC50 on human 5-HT1AR of 6.28.

By pIC50 is commonly meant the negative decadic logarithm of the IC50, by convention in mol/L. The compound `N#Cc1ccc2[nH]cc(CCCN3CCN(C(=O)c4cc(S(=O)(=O)NCC5CC5)ccc4OCC4CC4)CC3)c2c1` [Compound 13g] showed a pEC50 at human 5-HT1AR of 8.27. Further, the negative-log IC50 (pIC50) is 5.37 against human D2R and 5.64 on human 5-HT2AR.

Regarding `CS(=O)(=O)c1ccc(N2CCOCC2)c(C(=O)N2CCN(CCCc3c[nH]c4ccc(C#N)cc34)CC2)c1` [Compound 13b], on human 5-HT1AR, the pEC50 is 6.00.

`CS(=O)(=O)c1ccc(F)c(C(=O)N2CCN(CCCc3c[nH]c4ccc(C#N)cc34)CC2)c1` [Compound 13a] had a pEC50 at human 5-HT1AR of 6.78. In addition, the pIC50 at human 5-HT2AR is less than 5.30.

Turning to `CNS(=O)(=O)c1ccc(OC(C)C)c(C(=O)N2CCN(CCCc3c[nH]c4ccc(C#N)cc34)CC2)c1` [Compound 13j], at human 5-HT1AR, the “5-HT1AR EC50” value is “completely lose activity”.

Consider `CCOc1ccc(S(=O)(=O)NC)cc1C(=O)N1CCN(CCCc2c[nH]c3ccc(C#N)cc23)CC1` [Compound 13k], for which the pEC50 on human 5-HT1AR was 7.11. Moreover, at human 5-HT2AR, the pIC50 was 5.75.

For `CNS(=O)(=O)c1ccc(OCC2COC2)c(C(=O)N2CCN(CCCc3c[nH]c4ccc(C#N)cc34)CC2)c1` [Compound 13i], the negative logarithm of the EC50 (pEC50) at human 5-HT1AR is 6.40. For the same compound, the pIC50 at human 5-HT2AR was 5.38.

Compound `CNS(=O)(=O)c1ccc(OCC(C)C)c(C(=O)N2CCN(CCCc3c[nH]c4ccc(C#N)cc34)CC2)c1` [Compound 13h] showed a negative logarithm of the EC50 (pEC50) at human 5-HT1AR of 8.25. At human 5-HT2AR, the pIC50 is 6.25.

On to `N#Cc1ccc2[nH]cc(CCCN3CCN(C(=O)c4cc(S(=O)(=O)NCC5CC5)ccc4OC4COC4)CC3)c2c1` [Compound 13q, 3-(4-(3-(5-cyano-1H-indol-3-yl)propyl)piperazine-1-carbonyl)-N-(cyclopropylmethyl)-4-(oxetan-3-yloxy)benzenesulfonamide], for which the pEC50 at human 5-HT1AR was 6.76.

`CS(=O)(=O)c1ccc(OCC2CC2)c(C(=O)N2CCN(CCCc3c[nH]c4ccc(C#N)cc34)CC2)c1` [Compound 13d] gave a pEC50 at human 5-HT1AR of 7.06. Moreover, at human 5-HT2AR, the pIC50 is 6.05.

Compound `N#Cc1ccc2[nH]cc(CCCN3CCN(C(=O)c4cc(S(=O)(=O)NCC5CC5)ccc4OCC4COC4)CC3)c2c1` [Compound 13n] gave a negative logarithm of the EC50 (pEC50) on human 5-HT1AR of 7.50. On human 5-HT2AR, the negative logarithm of the IC50 (pIC50) is less than 5.30.

Consider `CC(C)Oc1ccc(S(=O)(=O)NCC2CC2)cc1C(=O)N1CCN(CCCc2c[nH]c3ccc(C#N)cc23)CC1` [Compound 13o, 3-(4-(3-(5-cyano-1H-indol-3-yl)propyl)piperazine-1-carbonyl)-N-(cyclopropylmethyl)-4-isopropoxybenzenesulfonamide], for which the pEC50 at human 5-HT1AR was 7.64.

The compound `CC(C)COc1ccc(S(=O)(=O)NCC2CC2)cc1C(=O)N1CCN(CCCc2c[nH]c3ccc(C#N)cc23)CC1` [Compound 13m] gave a pEC50 at human 5-HT1AR of 9.00. Further, the pIC50 against human D2R was less than 5.30; on human 5-HT2AR it was 5.82.

`CCS(=O)(=O)c1ccc(OCC2CC2)c(C(=O)N2CCN(CCCc3c[nH]c4ccc(C#N)cc34)CC2)c1` [Compound 13e]: the negative logarithm of the EC50 (pEC50) on human 5-HT1AR was 7.31. Besides, the pIC50 was less than 5.30 at human D2R and 5.89 at human 5-HT2AR.

As for `CNS(=O)(=O)c1ccc(OCC2CC2)c(C(=O)N2CCN(CCCc3c[nH]c4ccc(C#N)cc34)CC2)c1` [Compound 13f], the negative-log EC50 (pEC50) at human 5-HT1AR is 7.63. The negative logarithm of the IC50 (pIC50) at human 5-HT2AR was 5.96.

Turning to `CC(Oc1ccc(S(C)(=O)=O)cc1C(=O)N1CCN(CCCc2c[nH]c3ccc(C#N)cc23)CC1)C(F)(F)F` (centres unmarked) [Compound 13c], the negative logarithm of the EC50 (pEC50) on human 5-HT1AR was 6.71. For the same compound, at human 5-HT2AR, the pIC50 was 5.94.

`CCOc1ccc(S(=O)(=O)NCC2CC2)cc1C(=O)N1CCN(CCCc2c[nH]c3ccc(C#N)cc23)CC1` [Compound 13p, 3-(4-(3-(5-cyano-1H-indol-3-yl)propyl)piperazine-1-carbonyl)-N-(cyclopropylmethyl)-4-ethoxybenzenesulfonamide] gave a negative-log EC50 (pEC50) on human 5-HT1AR of 7.32. For the same compound, on human 5-HT2AR, the pIC50 is 5.33.
